# Reference: ChEMBL document CHEMBL1208720, “N-Benzylsalicylthioamides as novel compounds with promising antimycotic activity” (2010)
# Assays:
# Assay type in all cases: functional
# Candida albicans [1] = assay: Antifungal activity against Candida albicans ATCC 44859 after 24 hrs by broth microdilution assay; conditions: for MIC: Candida albicans, ATCC 44859, 24 h
# Candida albicans [2] = assay: Antifungal activity against Candida albicans ATCC 44859 after 48 hrs by broth microdilution assay; conditions: for MIC: Candida albicans, ATCC 44859, 48 h
# Candida tropicalis [3] = assay: Antifungal activity against Candida tropicalis 159 after 24 hrs by broth microdilution assay; conditions: for MIC: Candida tropicalis, 159, 24 h
# Candida tropicalis [4] = assay: Antifungal activity against Candida tropicalis 159 after 48 hrs by broth microdilution assay; conditions: for MIC: Candida tropicalis, 159, 48 h
# Pichia kudriavzevii [5] = assay: Antifungal activity against Candida krusei E28 after 24 hrs by broth microdilution assay; conditions: for MIC: Pichia kudriavzevii, E28, 24 h
# Pichia kudriavzevii [6] = assay: Antifungal activity against Candida krusei E28 after 48 hrs by broth microdilution assay; conditions: for MIC: Pichia kudriavzevii, E28, 48 h
# Nakaseomyces glabratus [7] = assay: Antifungal activity against Candida glabrata 20/I after 24 hrs by broth microdilution assay; conditions: for MIC: Nakaseomyces glabratus, 20/I, 24 h
# Nakaseomyces glabratus [8] = assay: Antifungal activity against Candida glabrata 20/I after 48 hrs by broth microdilution assay; conditions: for MIC: Nakaseomyces glabratus, 20/I, 48 h
# Trichosporon asahii [9] = assay: Antifungal activity against Trichosporon asahii 1188 after 24 hrs by broth microdilution assay; conditions: for MIC: Trichosporon asahii, 1188, 24 h
# Trichosporon asahii [10] = assay: Antifungal activity against Trichosporon asahii 1188 after 48 hrs by broth microdilution assay; conditions: for MIC: Trichosporon asahii, 1188, 48 h
# Aspergillus fumigatus [11] = assay: Antifungal activity against Aspergillus fumigatus 231 after 24 hrs by broth microdilution assay; conditions: for MIC: Aspergillus fumigatus, 231, 24 h
# Aspergillus fumigatus [12] = assay: Antifungal activity against Aspergillus fumigatus 231 after 48 hrs by broth microdilution assay; conditions: for MIC: Aspergillus fumigatus, 231, 48 h
# Lichtheimia corymbifera [13] = assay: Antifungal activity against Absidia corymbifera 272 after 24 hrs by broth microdilution assay; conditions: for MIC: Lichtheimia corymbifera, 272, 24 h
# Lichtheimia corymbifera [14] = assay: Antifungal activity against Absidia corymbifera 272 after 48 hrs by broth microdilution assay; conditions: for MIC: Lichtheimia corymbifera, 272, 48 h
# [15] = system: Trichophyton mentagrophytes; assay: Antifungal activity against Trichophyton mentagrophytes 445 after 72 hrs by broth microdilution assay; conditions: for MIC: Trichophyton mentagrophytes, 445, 72 h
# [16] = system: Trichophyton mentagrophytes; assay: Antifungal activity against Trichophyton mentagrophytes 445 after 120 hrs by broth microdilution assay; conditions: for MIC: Trichophyton mentagrophytes, 445, 120 h
SMILES,MIC (Candida albicans [1]),MIC (Candida albicans [2]),MIC (Candida tropicalis [3]),MIC (Candida tropicalis [4]),MIC (Pichia kudriavzevii [5]),MIC (Pichia kudriavzevii [6]),MIC (Nakaseomyces glabratus [7]),MIC (Nakaseomyces glabratus [8]),MIC (Trichosporon asahii [9]),MIC (Trichosporon asahii [10]),MIC (Aspergillus fumigatus [11]),MIC (Aspergillus fumigatus [12]),MIC (Lichtheimia corymbifera [13]),MIC (Lichtheimia corymbifera [14]),MIC [15],MIC [16],also measured
Oc1ccc(Br)cc1C(=S)NCc1ccc(Br)cc1,15.6 µM,31.2 µM,31.2 µM,31.2 µM,3.9 µM,15.6 µM,31.2 µM,125 µM,3.9 µM,7.81 µM,15.6 µM,15.6 µM,3.9 µM,3.9 µM,15.6 µM,31.2 µM,
Oc1ccc(Cl)cc1C(=S)NCc1ccccc1,62.5 µM,125 µM,62.5 µM,125 µM,15.6 µM,31.2 µM,15.6 µM,62.5 µM,31.2 µM,31.2 µM,31.2 µM,31.2 µM,15.6 µM,15.6 µM,1.95 µM,3.9 µM,
Cc1ccc(C(=S)NCc2ccccc2)c(O)c1,62.5 µM,125 µM,125 µM,250 µM,62.5 µM,125 µM,125 µM,250 µM,62.5 µM,62.5 µM,62.5 µM,125 µM,7.81 µM,31.2 µM,31.2 µM,31.2 µM,
COc1ccc(C(=S)NCc2cccc(Cl)c2)c(O)c1,125 µM,250 µM,125 µM,250 µM,125 µM,125 µM,250 µM,500 µM,31.2 µM,62.5 µM,62.5 µM,125 µM,7.81 µM,7.81 µM,15.6 µM,15.6 µM,
Cc1ccc(CNC(=S)c2ccc(C)cc2O)cc1,125 µM,250 µM,125 µM,500 µM,62.5 µM,125 µM,125 µM,500 µM,31.2 µM,62.5 µM,125 µM,500 µM,7.81 µM,31.2 µM,15.6 µM,15.6 µM,
COc1ccc(C(=S)NCc2ccccc2)c(O)c1,62.5 µM,250 µM,250 µM,250 µM,250 µM,250 µM,500 µM,500 µM,250 µM,250 µM,250 µM,500 µM,62.5 µM,250 µM,62.5 µM,62.5 µM,
OC(Cn1cncn1)(Cn1cncn1)c1ccc(F)cc1F [FLUCONAZOLE],1 µM,2 µM,3 µM,5 µM,> 50 µM,> 50 µM,22 µM,> 50 µM,4 µM,9 µM,> 50 µM,> 50 µM,> 50 µM,> 50 µM,17 µM,26 µM,
Cc1cccc(C(=S)NCc2ccc(Cl)cc2)c1O,62.5 µM,125 µM,125 µM,250 µM,> 500 µM,> 500 µM,> 500 µM,> 500 µM,62.5 µM,62.5 µM,62.5 µM,125 µM,31.2 µM,31.2 µM,15.6 µM,15.6 µM,
Oc1ccccc1C(=S)NCc1ccc(F)cc1,62.5 µM,125 µM,125 µM,250 µM,62.5 µM,125 µM,125 µM,250 µM,31.2 µM,62.5 µM,62.5 µM,62.5 µM,15.6 µM,31.2 µM,7.81 µM,31.2 µM,
Oc1ccc(Cl)cc1C(=S)NCc1ccc(F)cc1,31.2 µM,125 µM,62.5 µM,125 µM,7.81 µM,15.6 µM,62.5 µM,125 µM,7.81 µM,15.6 µM,31.2 µM,15.6 µM,15.6 µM,15.6 µM,15.6 µM,15.6 µM,
Cc1ccc(C(=S)NCc2ccc(Cl)cc2)c(O)c1,> 500 µM,> 500 µM,> 500 µM,> 500 µM,> 500 µM,> 500 µM,> 500 µM,> 500 µM,> 500 µM,> 500 µM,> 500 µM,> 500 µM,> 500 µM,> 500 µM,> 500 µM,> 500 µM,
Oc1ccc(Cl)cc1C(=S)NCc1ccc(Cl)c(Cl)c1,31.2 µM,31.2 µM,31.2 µM,62.5 µM,3.9 µM,15.6 µM,31.2 µM,31.2 µM,3.9 µM,7.81 µM,3.9 µM,15.6 µM,3.9 µM,7.81 µM,0.98 µM,0.98 µM,
Oc1ccccc1C(=S)NCc1ccc(Cl)c(Cl)c1,15.6 µM,31.2 µM,31.2 µM,31.2 µM,15.6 µM,31.2 µM,31.2 µM,31.2 µM,15.6 µM,15.6 µM,15.6 µM,31.2 µM,7.81 µM,15.6 µM,7.81 µM,15.6 µM,
Oc1ccc(Br)cc1C(=S)NCc1cccc(Br)c1,15.6 µM,31.2 µM,15.6 µM,62.5 µM,3.9 µM,7.81 µM,7.81 µM,31.2 µM,15.6 µM,31.2 µM,7.81 µM,15.6 µM,3.9 µM,3.9 µM,1.95 µM,1.95 µM,
Cc1cccc(CNC(=S)c2ccccc2O)c1,125 µM,250 µM,125 µM,250 µM,125 µM,250 µM,125 µM,250 µM,31.2 µM,62.5 µM,62.5 µM,62.5 µM,62.5 µM,15.6 µM,15.6 µM,15.6 µM,
COc1ccc(O)c(C(=S)NCc2ccccc2)c1,,,,,,,,,,,,,,,,,logMIC (Candida albicans [1]): 2.1; logMIC (Candida albicans [2]): 2.4; logMIC (Candida tropicalis [3]): 2.4; logMIC (Candida tropicalis [4]): 2.4; logMIC (Pichia kudriavzevii [5]): 2.4; logMIC (Pichia kudriavzevii [6]): 2.4; logMIC (Nakaseomyces glabratus [7]): 2.4; logMIC (Nakaseomyces glabratus [8]): 2.4; logMIC (Trichosporon asahii [9]): 2.1; logMIC (Trichosporon asahii [10]): 2.4; logMIC (Aspergillus fumigatus [11]): 2.4; logMIC (Aspergillus fumigatus [12]): 2.4; logMIC (Lichtheimia corymbifera [13]): 1.49; logMIC (Lichtheimia corymbifera [14]): 2.1; logMIC [15]: 1.8; logMIC [16]: 1.8
